Test results from PubChem BioAssay AID248 (DTP/NCI, 2004).
Several values for one entry are separate records, joined by “and”; a condition that tells them apart may be missing. Identical values can stand only once. Toxic doses and inconclusive results are not listed. Cut-off read from the data, not from the text of the source: active = T/C of 150% or more; inactive = T/C below 125%.

Test system: L1210 leukemia ip in BDF1 mice, survival T/C
Experiment: NCI In Vivo Anticancer Drug Screen. Data for tumor model L1210 Leukemia (intraperitoneal) in B6D2F1 (BDF1) mice
Conditions: endpoint: mean survival time, higher = longer survival
Summary of the method: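 Value reflects the ratio of survival in compound-treated mice to survival in vehicle-treated controls, with both groups carrying the same transplanted tumor.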

[1] = dose: 50.0 mg/kg/injection, schedule: Q01DX009 (ip), vehicle: saline
[2] = dose: 100.0 mg/kg/injection, schedule: Q01DX009 (ip), vehicle: saline
[3] = dose: 100.0 mg/kg/injection, schedule: Q04DX003 (ip), vehicle: saline
[4] = dose: 200.0 mg/kg/injection, schedule: Q01DX001 (ip), vehicle: saline
[5] = dose: 100.0 mg/kg/injection, schedule: Q04DX003 (ip), vehicle: saline with Tween-80
[6] = dose: 200.0 mg/kg/injection, schedule: Q04DX003 (ip), vehicle: saline with Tween-80
[7] = dose: 400.0 mg/kg/injection, schedule: Q04DX003 (ip), vehicle: saline with Tween-80
[8] = dose: 100.0 mg/kg/injection, schedule: Q01DX009 (ip), vehicle: saline with Tween-80
[9] = dose: 200.0 mg/kg/injection, schedule: Q01DX009 (ip), vehicle: saline with Tween-80
[10] = dose: 50.0 mg/kg/injection, schedule: Q01DX009 (ip), vehicle: Klucel (hydroxypropylcellulose) (HPC)
[11] = dose: 100.0 mg/kg/injection, schedule: Q01DX009 (ip), vehicle: Klucel (hydroxypropylcellulose) (HPC)
[12] = dose: 200.0 mg/kg/injection, schedule: Q04DX003 (ip), vehicle: saline
[13] = dose: 400.0 mg/kg/injection, schedule: Q04DX003 (ip), vehicle: saline
[14] = dose: 200.0 mg/kg/injection, schedule: Q01DX009 (ip), vehicle: saline

Measured: T/C

COc1cc(CN(C)C2CCCCC2)cc(OC)c1OC
inactive: dose: 6.25 mg/kg/injection, schedule: Q01DX009 (ip), vehicle: saline 103 % of control | dose: 12.5 mg/kg/injection, schedule: Q01DX009 (ip), vehicle: saline 103 % of control | dose: 25.0 mg/kg/injection, schedule: Q01DX009 (ip), vehicle: saline 100 % of control | dose: 25.0 mg/kg/injection, schedule: Q04DX003 (ip), vehicle: saline 97 % of control | [1] 94 % of control | dose: 50.0 mg/kg/injection, schedule: Q04DX003 (ip), vehicle: saline 103 % of control | [2] 90 % of control | [3] 100 % of control

Cc1cccc(N(CCOC(=O)Nc2cccc(Cl)c2)CCOC(=O)Nc2cccc(Cl)c2)c1
inactive: [4] 100 % of control | dose: 400.0 mg/kg/injection, schedule: Q01DX001 (ip), vehicle: saline 89 % of control

O=C1c2ccccc2C(=O)c2cc(S(=O)(=O)O)ccc21
inactive: [5] 95 % of control | [6] 95 % of control | [7] 95 % of control

CSCc1cccc(CO)c1
inactive: dose: 100.0 mg/kg/injection, schedule: Q01DX009 (ip), vehicle: acetone 101 % of control | dose: 100.0 mg/kg/injection, schedule: Q04DX003 (ip), vehicle: acetone 98 % of control | dose: 200.0 mg/kg/injection, schedule: Q01DX009 (ip), vehicle: acetone 105 % of control | dose: 200.0 mg/kg/injection, schedule: Q04DX003 (ip), vehicle: acetone 106 % of control | dose: 400.0 mg/kg/injection, schedule: Q01DX009 (ip), vehicle: acetone 97 % of control | dose: 400.0 mg/kg/injection, schedule: Q04DX003 (ip), vehicle: acetone 109 % of control

Cc1cc(OC(=O)Nc2ccc(Cl)cc2C(F)(F)F)c(C)cc1Cl
inactive: dose: 50.0 mg/kg/injection, schedule: Q01DX009 (ip), vehicle: saline with Tween-80 98 % of control | [8] 95 % of control | [9] 109 % of control

O=C1/C(=C\c2ccc([N+](=O)[O-])cc2)CS(=O)(=O)C/C1=C/c1ccc([N+](=O)[O-])cc1
inactive: [10] 97 % of control | dose: 100.0 mg/kg/injection, schedule: Q01DX001 (ip), vehicle: saline 97 % of control | [11] 93 % of control | [4] 94 % of control | dose: 200.0 mg/kg/injection, schedule: Q01DX009 (ip), vehicle: Klucel (hydroxypropylcellulose) (HPC) 92 % of control

O=S(CCO)CCS(=O)CCO (centres undefined)
inactive: dose: 75.0 mg/kg/injection, schedule: Q01DX009 (ip), vehicle: saline 95 % of control | [3] 106 % of control | dose: 150.0 mg/kg/injection, schedule: Q01DX009 (ip), vehicle: saline 101 % of control | [12] 110 % of control | dose: 300.0 mg/kg/injection, schedule: Q01DX009 (ip), vehicle: saline 97 % of control | [13] 100 % of control

COC(=O)C(N)CCl (centres undefined)
inactive: dose: 100.0 mg/kg/injection, schedule: Q01DX001 (ip), vehicle: steriod suspending solution 101 % of control | [2] 93 % of control | [3] 106 % of control | dose: 200.0 mg/kg/injection, schedule: Q01DX001 (ip), vehicle: steriod suspending solution 95 % of control | [14] 100 % of control | [12] 102 % of control | dose: 400.0 mg/kg/injection, schedule: Q01DX001 (ip), vehicle: steriod suspending solution 106 % of control | dose: 400.0 mg/kg/injection, schedule: Q01DX009 (ip), vehicle: saline 101 % of control | [13] 104 % of control

CC1=C2/C=c3\[nH]/c(c(CCC(=O)NCCN)c3C)=C\c3[nH]c(c(C)c3CCC(=O)NCCN)CC3NC(CC(=N2)C1=NCCN)C(C)=C3NCCN (centres undefined)
inactive: dose: 37.5 mg/kg/injection, schedule: Q01DX001 (ip), vehicle: saline 97 % of control | dose: 75.0 mg/kg/injection, schedule: Q01DX001 (ip), vehicle: saline 97 % of control and 111 % of control | dose: 150.0 mg/kg/injection, schedule: Q01DX001 (ip), vehicle: saline 106 % of control and 120 % of control | dose: 300.0 mg/kg/injection, schedule: Q01DX001 (ip), vehicle: saline 102 % of control

COC(=O)/C=C(/CC(=O)OC)Nc1ccc(OC)cc1
inactive: dose: 100.0 mg/kg/injection, schedule: Q01DX001 (ip), vehicle: other 101 % of control | dose: 200.0 mg/kg/injection, schedule: Q01DX001 (ip), vehicle: other 101 % of control | dose: 400.0 mg/kg/injection, schedule: Q01DX001 (ip), vehicle: other 108 % of control

CCCCN(CC)/N=N/c1nc[nH]c1C(N)=O
inactive: dose: 100.0 mg/kg/injection, schedule: Q01DX001 (ip), vehicle: saline with Tween-80 95 % of control | [8] 117 % of control | [5] 94 % of control | dose: 200.0 mg/kg/injection, schedule: Q01DX001 (ip), vehicle: saline with Tween-80 101 % of control | [9] 124 % of control | [6] 110 % of control | dose: 400.0 mg/kg/injection, schedule: Q01DX001 (ip), vehicle: saline with Tween-80 116 % of control | dose: 400.0 mg/kg/injection, schedule: Q01DX009 (ip), vehicle: saline with Tween-80 88 % of control | [7] 103 % of control

OCC(O)C(O)C(O)CN=Cc1ccccc1O (centres undefined)
inactive: dose: 75.0 mg/kg/injection, schedule: Q04DX002 (ip), vehicle: saline with Tween-80 106 % of control | dose: 150.0 mg/kg/injection, schedule: Q04DX002 (ip), vehicle: saline with Tween-80 98 % of control | dose: 300.0 mg/kg/injection, schedule: Q04DX002 (ip), vehicle: saline with Tween-80 109 % of control

Cc1ccc(Cl)cc1NC(=O)Oc1ccc(Cl)cc1C
inactive: dose: 12.5 mg/kg/injection, schedule: Q01DX009 (ip), vehicle: Klucel (hydroxypropylcellulose) (HPC) 95 % of control | dose: 25.0 mg/kg/injection, schedule: Q01DX009 (ip), vehicle: Klucel (hydroxypropylcellulose) (HPC) 95 % of control | [10] 97 % of control | [11] 96 % of control

O=C(O)Cc1ccc(Cl)c(Cl)c1
inactive: [1] 94 % of control | [2] 105 % of control | [14] 108 % of control

CCCCCCCCCCCCCCC[n+]1cccc(C#N)c1
inactive: dose: 5.0 mg/kg/injection, schedule: Q01DX009 (ip), vehicle: saline 104 % of control | dose: 10.0 mg/kg/injection, schedule: Q01DX001 (ip), vehicle: saline 87 % of control | dose: 10.0 mg/kg/injection, schedule: Q01DX009 (ip), vehicle: saline 96 % of control | dose: 10.0 mg/kg/injection, schedule: Q04DX003 (ip), vehicle: saline 90 % of control | dose: 20.0 mg/kg/injection, schedule: Q01DX001 (ip), vehicle: saline 95 % of control and 86 % of control | dose: 20.0 mg/kg/injection, schedule: Q01DX009 (ip), vehicle: saline 107 % of control | dose: 20.0 mg/kg/injection, schedule: Q04DX003 (ip), vehicle: saline 95 % of control | dose: 40.0 mg/kg/injection, schedule: Q01DX001 (ip), vehicle: saline 101 % of control and 90 % of control | dose: 40.0 mg/kg/injection, schedule: Q04DX003 (ip), vehicle: saline 94 % of control

C/C=C/C(=O)Nc1cccc(Cl)c1
inactive: dose: 100.0 mg/kg/injection, schedule: Q01DX009 (ip), vehicle: other 92 % of control | dose: 200.0 mg/kg/injection, schedule: Q01DX009 (ip), vehicle: other 100 % of control
